{
  "source": "ChEMBL document CHEMBL5143526",
  "about": "“Acridine-O6-benzylguanine hybrids: Synthesis, DNA binding, MGMT inhibition and antiproliferative activity” (Eur J Med Chem, 2022)",
  "note": "The source made the active and inactive calls. The rule behind the calls is not given here.",
  "data": [
    {"tested_on": "Calf thymus DNA", "experiment": "Binding affinity to calf thymus DNA assessed as ligand-induced thermal stabilization of DNA duplex by measuring change in melting temperature at 6.25 uM by thermal denaturation analysis", "type": "nucleic-acid assay", "conditions": "Bos taurus", "units": {"ΔTm": "°C"}, "values": [
      {"smiles": "COc1ccc2nc3cc(Cl)ccc3c(NCCCCn3cnc4c(OCc5ccccc5)nc(N)nc43)c2c1", "ΔTm": 0.6}
    ]},
    {"tested_on": "T98G", "experiment": "Antiproliferative activity against human T98G cells assessed as cell viability at 188 uM incubated for 96 hrs by CellTiter-Glo luminescent cell viability assay relative to control", "type": "functional", "conditions": "read-out: Activity", "units": {"viability at 188 µM": "%"}, "values": [
      {"smiles": "Cn1nnc2c(C(N)=O)ncn2c1=O", "note": "[TEMOZOLOMIDE]", "viability at 188 µM": 63}
    ]},
    {"tested_on": "T98G", "experiment": "Additive antiproliferative activity against human T98G cells assessed as reduction in cell viability at 25 uM pretreated for 2 hrs followed by TMZ addition at 375 uM and measured after 94 hrs by CellTiter-Glo luminescent cell viability assay", "type": "functional, cell-based", "conditions": "time 96.0 hrs", "values": [
      {"smiles": "NCc1cccc(COc2nc(N)nc3nc[nH]c23)c1", "Activity": "Active"},
      {"smiles": "Nc1nc(OCc2ccccc2)c2nc[nH]c2n1", "note": "[6-O-BENZYLGUANINE]", "Activity": "Active"}
    ]},
    {"tested_on": "T98G", "experiment": "Synergistic antiproliferative activity against human T98G cells assessed as reduction in cell viability at 25 uM pretreated for 2 hrs followed by TMZ addition at 94 uM and measured after 94 hrs by CellTiter-Glo luminescent cell viability assay", "type": "functional, cell-based", "conditions": "time 96.0 hrs", "values": [
      {"smiles": "NCc1cccc(COc2nc(N)nc3nc[nH]c23)c1", "Activity": "Active"},
      {"smiles": "Nc1nc(OCc2ccccc2)c2nc[nH]c2n1", "note": "[6-O-BENZYLGUANINE]", "Activity": "Active"}
    ]},
    {"tested_on": "T98G", "experiment": "Antiproliferative activity against human T98G cells assessed as cell viability at 375 uM incubated for 96 hrs by CellTiter-Glo luminescent cell viability assay relative to control", "type": "functional", "conditions": "read-out: Activity", "units": {"viability at 375 µM": "%"}, "values": [
      {"smiles": "Cn1nnc2c(C(N)=O)ncn2c1=O", "note": "[TEMOZOLOMIDE]", "viability at 375 µM": 50}
    ]},
    {"tested_on": "T98G", "experiment": "Induction of apoptosis in human T98G cells assessed as increase in early apoptotic cells at 1.1 uM pretreated for 2 hrs followed by TMZ addition and measured after 96 hrs by Annexin V-FITC/PI staining based flow cytometry analysis relative to control", "type": "functional", "conditions": "time 98 hrs", "units": {"Activity": "%"}, "values": [
      {"smiles": "COc1ccc2nc3cc(Cl)ccc3c(NCCCCn3cnc4c(OCc5ccccc5)nc(N)nc43)c2c1", "Activity": 11}
    ]},
    {"tested_on": "T98G", "experiment": "Antiproliferative activity against human T98G cells assessed as cell viability at 94 uM incubated for 96 hrs by CellTiter-Glo luminescent cell viability assay relative to control", "type": "functional", "conditions": "read-out: Activity", "units": {"viability at 94 µM": "%"}, "values": [
      {"smiles": "Cn1nnc2c(C(N)=O)ncn2c1=O", "note": "[TEMOZOLOMIDE]", "viability at 94 µM": 100}
    ]},
    {"tested_on": "T98G", "experiment": "Additive antiproliferative activity against human T98G cells assessed as reduction in cell viability at 25 uM pretreated for 2 hrs followed by TMZ addition at 188 uM and measured after 94 hrs by CellTiter-Glo luminescent cell viability assay", "type": "functional, cell-based", "conditions": "time 96.0 hrs", "values": [
      {"smiles": "NCc1cccc(COc2nc(N)nc3nc[nH]c23)c1", "Activity": "Active"},
      {"smiles": "Nc1nc(OCc2ccccc2)c2nc[nH]c2n1", "note": "[6-O-BENZYLGUANINE]", "Activity": "Active"}
    ]},
    {"tested_on": "T98G", "experiment": "Additive antiproliferative activity against human T98G cells assessed as reduction in cell viability at GI50 pretreated for 2 hrs followed by TMZ addition at 188 uM and measured after 94 hrs by CellTiter-Glo luminescent cell viability assay", "type": "functional, cell-based", "conditions": "not given", "values": [
      {"smiles": "COc1ccc2nc3cc(Cl)ccc3c(NCCCCn3cnc4c(OCc5ccccc5)nc(N)nc43)c2c1", "Activity": "Active"}
    ]},
    {"tested_on": "T98G", "experiment": "Induction of DNA damage in human T98G cells assessed as increase in gammaH2AX foci number and size at 92 uM pretreated for 2 hrs followed by TMZ addition and measured after 94 hrs by DAPI staining based immunofluorescence assay", "type": "functional, cell-based", "conditions": "time 96.0 hrs", "values": [
      {"smiles": "Nc1nc(OCc2ccccc2)c2nc[nH]c2n1", "note": "[6-O-BENZYLGUANINE]", "Activity": "Active"}
    ]},
    {"tested_on": "not listed separately", "experiment": "Fluorescence property of compound in aqueous solution assessed as quantum yield", "type": "physicochemical", "conditions": "buffer", "values": [
      {"smiles": "COc1ccc2nc3cc(Cl)ccc3c(NCCCCn3cnc4c(OCc5ccccc5)nc(N)nc43)c2c1", "Activity": 0.01}
    ]},
    {"tested_on": "not listed separately", "experiment": "Drug localization in perinuclear region of nuclear membrane of human T98G cells assessed as appearance of z-stacked series at 1.1 uM measured after 96 hrs by confocal microscope based live cell imaging analysis", "type": "ADME, cell membranes", "conditions": "not given", "values": [
      {"smiles": "COc1ccc2nc3cc(Cl)ccc3c(NCCCCn3cnc4c(OCc5ccccc5)nc(N)nc43)c2c1", "Drug uptake": "Active"}
    ]},
    {"tested_on": "not listed separately", "experiment": "Drug localization in cytosolic region of human T98G cells at 1.1 uM measured after 96 hrs by confocal microscope based live cell imaging analysis", "type": "ADME, subcellular", "conditions": "cytosol", "values": [
      {"smiles": "COc1ccc2nc3cc(Cl)ccc3c(NCCCCn3cnc4c(OCc5ccccc5)nc(N)nc43)c2c1", "Drug uptake": "Active"}
    ]},
    {"tested_on": "T98G", "experiment": "Synergistic antiproliferative activity against human T98G cells assessed as reduction in cell viability at GI50 pretreated for 2 hrs followed by TMZ addition at 375 uM and measured after 94 hrs by CellTiter-Glo luminescent cell viability assay", "type": "functional, cell-based", "conditions": "time 96.0 hrs", "values": [
      {"smiles": "COc1ccc2nc3cc(Cl)ccc3c(NCCCCn3cnc4c(OCc5ccccc5)nc(N)nc43)c2c1", "Activity": "Active"}
    ]},
    {"tested_on": "not listed separately", "experiment": "Fluorescence property of compound in MeCN assessed as quantum yield", "type": "physicochemical", "conditions": "not given", "values": [
      {"smiles": "COc1ccc2nc3cc(Cl)ccc3c(NCCCCn3cnc4c(OCc5ccccc5)nc(N)nc43)c2c1", "Activity": 0.07}
    ]},
    {"tested_on": "T98G", "experiment": "Synergistic antiproliferative activity against human T98G cells assessed as reduction in cell viability at GI50 pretreated for 2 hrs followed by TMZ addition at 94 uM and measured after 94 hrs by CellTiter-Glo luminescent cell viability assay", "type": "functional, cell-based", "conditions": "time 96.0 hrs", "values": [
      {"smiles": "COc1ccc2nc3cc(Cl)ccc3c(NCCCCn3cnc4c(OCc5ccccc5)nc(N)nc43)c2c1", "Activity": "Active"}
    ]},
    {"tested_on": "T98G", "experiment": "Induction of apoptosis in human T98G cells assessed as increase in early apoptotic cells at 1.1 uM measured after 96 hrs by Annexin V-FITC/PI staining based flow cytometry analysis relative to control", "type": "functional", "conditions": "not given", "units": {"Activity": "%"}, "values": [
      {"smiles": "COc1ccc2nc3cc(Cl)ccc3c(NCCCCn3cnc4c(OCc5ccccc5)nc(N)nc43)c2c1", "Activity": 10}
    ]},
    {"tested_on": "T98G", "experiment": "Induction of apoptosis in human T98G cells assessed as increase in early apoptotic cells at 92 uM pretreated for 2 hrs followed by TMZ addition and measured after 96 hrs by Annexin V-FITC/PI staining based flow cytometry analysis (reference value: 2 %)", "type": "functional", "conditions": "time 98 hrs", "units": {"Activity": "%"}, "values": [
      {"smiles": "Nc1nc(OCc2ccccc2)c2nc[nH]c2n1", "note": "[6-O-BENZYLGUANINE]", "Activity": 8}
    ]},
    {"tested_on": "Calf thymus DNA", "experiment": "Binding affinity to calf thymus DNA assessed as intercalation by measuring dissociation constant at 20 uM measured after 5 mins by UV-Vis spectrophotometric titration analysis", "type": "nucleic-acid assay, Bos taurus", "conditions": "not given", "units": {"Kd": "µM"}, "values": [
      {"smiles": "COc1ccc2nc3cc(Cl)ccc3c(NCCCCn3cnc4c(OCc5ccccc5)nc(N)nc43)c2c1", "Kd": 19.1}
    ]},
    {"tested_on": "not listed separately", "experiment": "Fluorescence property of compound in THF assessed as quantum yield", "type": "physicochemical", "conditions": "not given", "values": [
      {"smiles": "COc1ccc2nc3cc(Cl)ccc3c(NCCCCn3cnc4c(OCc5ccccc5)nc(N)nc43)c2c1", "Activity": 0.09}
    ]},
    {"tested_on": "not listed separately", "experiment": "Thermal stability of compound in aqueous solution at 10 uM at 20 to 75 degreeC by UV-vis absorption spectroscopy", "type": "physicochemical", "conditions": "buffer", "values": [
      {"smiles": "COc1ccc2nc3cc(Cl)ccc3c(NCCCCn3cnc4c(OCc5ccccc5)nc(N)nc43)c2c1", "Stability": "Stable"}
    ]},
    {"tested_on": "not listed separately", "experiment": "Fluorescence property of compound in MeOH assessed as quantum yield", "type": "physicochemical", "conditions": "not given", "values": [
      {"smiles": "COc1ccc2nc3cc(Cl)ccc3c(NCCCCn3cnc4c(OCc5ccccc5)nc(N)nc43)c2c1", "Activity": 0.06}
    ]},
    {"tested_on": "T98G", "experiment": "Antiproliferative activity against human T98G cells assessed as cell growth inhibition incubated for 96 hrs by CellTiter-Glo luminescent cell viability assay", "type": "functional", "conditions": "not given", "units": {"GI50": "µM"}, "values": [
      {"smiles": "NCc1cccc(COc2nc(N)nc3nc[nH]c23)c1", "GI50": "> 25"},
      {"smiles": "Nc1nc(OCc2ccccc2)c2nc[nH]c2n1", "note": "[6-O-BENZYLGUANINE]", "GI50": 91.8},
      {"smiles": "COc1ccc2nc3cc(Cl)ccc3c(NCCCCn3cnc4c(OCc5ccccc5)nc(N)nc43)c2c1", "GI50": 1.1},
      {"smiles": "Cn1nnc2c(C(N)=O)ncn2c1=O", "note": "[TEMOZOLOMIDE]", "GI50": 375}
    ]},
    {"tested_on": "HT-29", "experiment": "Growth inhibition of human HT-29 cells measured after 24 hrs", "type": "functional", "conditions": "not given", "units": {"GI50": "µM"}, "values": [
      {"smiles": "Nc1nc(OCc2ccccc2)c2nc[nH]c2n1", "note": "[6-O-BENZYLGUANINE]", "GI50": "> 100"}
    ]}
  ]
}
